{"source": "patent US6410515B1", "about": "“Peptide, a method for its preparation and a pharmaceutical composition containing the peptide” (Immunotech Developments Inc., priority 1995, dated 2002)", "key": {"[1]": {"system": "allogenic bone marrow (C57B1 donor, F1 (CBA×C57B1) recipient)", "assay": "Taking of allogenic bone marrow transplant and survival", "assay_type": "in vivo, mice", "description": "The preparations were administered daily for the first 5 days after transplantation of bone marrow transplants of donor mice C57B1 to lethally irradiated recipient mice F1 (CBA×C57B1), starting from the 1st hour after the transplantation."}, "[2]": {"system": "lethally irradiated recipient mice", "assay": "State of hemopoiesis after transplantation of allogenic bone marrow", "assay_type": "in vivo", "conditions": "for Caryocytes in blood: control 1,7 + 0,3; for Lymphocytes, %: control 3", "description": "In a series of experiments, bone marrow cells (6 million) of one of the parents were transplanted to lethally irradiated recipient mice which were hybrids of the first generation. […] Generally, weight loss is observed and there is a small percent of deaths during the 42-day study.\nA day after the bone marrow transplantation, test recipients began to receive therapy. Three schemes of therapy were used: (1) iDD, 10 μg/kg, ip, for 5 days running, with 2-day intervals, for 6 weeks (K+iDD); (2) before transplantation, bone marrow transplants were treated with iDD in vitro for 1 hour at 37° C., 0.2 jig per 2 x 10^6 cells, without […] treatment with the preparation (iDD); and (3) bone marrow was pretreated in vitro as described in scheme 2, followed by iDD therapy as in scheme 1 (iDD+iDD). Control subjects were mice that were transplanted with the bone marrow without any further therapy. These animals received ip injections of the solvent according to the same schedule."}, "[3]": {"system": "hyperthermic bone marrow cells (CFU-S)", "assay": "Survival of CFU-S of bone marrow after heating at 42° C.", "assay_type": "cell-based", "description": "Hyperthermia is used in the treatment of various cancer types. When treating leukosis, the damaged bone marrow cells are heated at approximately 41-42° C. in order to kill malignant cells as they are more sensitive to heat. However, some non-malignant stem cells may also be affected. Consequently, the ability of the iDD peptide to protect cells during hyperthermia was tested. A suspension of the bone marrow, previously incubated for 1 hour at 37° C. in the presence of iDD (0.2 μg/4×10^6 cells), was heated for 30 minutes at 42° C. It was then diluted until the necessary concentration was reached and transplanted to the lethally radiated recipients The quantity of the exogenous colonies in the spleen was determined on the ninth day. […] The decrease of the colony formation under the action of iDD is not critical, because its colony-inhibiting action is reversible."}, "[4]": {"conditions": "iDD + iDD: in vitro pretreatment and iDD therapy"}, "[5]": {"conditions": "iDD: transplant treated in vitro only"}}, "note": "Marks after values point to notes of the source that are not given here.", "data": [{"substance": "H-D-iGlu-D-Trp-OH [iDD]", "values": [{"measurement": "CFU-S taking root, %", "setting": "[1]; C57B1 marrow to F1, Cyclosporin A 25μg/kg sc, iDD 10μg/kg ip, untreated 17,3", "result": 43, "unit": "%"}, {"measurement": "Average colony count", "setting": "[1]; C57B1 marrow to F1, daily 5 days, Cyclosporin A 25μg/kg sc, iDD 10μg/kg ip, per 10^5 cells, untreated 1,7 ± 0,3", "result": "4,2 ± 0,3"}, {"measurement": "MCL (Medium continuation of life)", "setting": "[1]; after 42 days, control 14,3", "result": "6,0"}, {"measurement": "Survived mice, %", "setting": "[1]; after 42 days, control 50", "result": 93, "unit": "%"}, {"measurement": "Caryocytes in blood", "setting": "[2]; K+ iDD: iDD 10 μg/kg ip, 6 weeks, intact 5,4 + 1,0", "result": "3,8 + 0,3 thousand/μl"}, {"measurement": "Lymphocytes, %", "setting": "[2]; K+ iDD: iDD 10 μg/kg ip, 6 weeks, intact 43", "result": 19, "unit": "%"}, {"measurement": "Caryocytes in blood", "setting": "[2]; [4]", "result": "5,2 + 0,6* thousand/μl"}, {"measurement": "Lymphocytes, %", "setting": "[2]; [4]", "result": "40* %"}, {"measurement": "Caryocytes in blood", "setting": "[2]; [5]", "result": "4,2 + 0,3 thousand/μl"}, {"measurement": "Lymphocytes, %", "setting": "[2]; [5]", "result": "21,5%"}, {"measurement": "Increase of lymphocyte count versus control", "setting": "[2]; schemes K+iDD and iDD", "result": "6-7 times"}, {"measurement": "Medium quantity of colonies", "setting": "[3]; iDD 0.2 μg/4×10^6 cells + heating 30 minutes at 42° C., control + heating 5.9 ± 0.6", "result": "6.9 ± 0.6"}, {"measurement": "Medium quantity of colonies", "setting": "[3]; iDD 0.2 μg/4×10^6 cells, no heating, control 11.4 ± 0.4", "result": "6.0 ± 0.6"}, {"measurement": "Survival of CFU-S, %", "setting": "[3]; iDD + heating, control + heating 51.7", "result": 115, "unit": "%"}, {"measurement": "Survival of CFU-S, %", "setting": "[3]; iDD, no heating (reference)", "result": 100, "unit": "%"}]}]}
